Columns and labels:
[1] = test system: TYK2 Pseudokinase (JH2); test: HEK-Blue IL-23 reporter assay (SEAP) for profiling TYK2 pseudokinase (JH2) inhibition; assay type: cell-based; conditions: HEK-Blue IL-23 cells, 10 ng/mL human recombinant IL-23, SEAP reporter; read-out: IL23 IC50 (TYK2 inhibitory activity)
Procedure: (§1) HEK-Blue™ IL-23 and IFNα/β cells with a stably-integrated cytokine receptor and STAT3 or STAT1 express STAT-inducible secreted embryonic alkaline phosphatase (SEAP) reporter gene upon cytokine stimulation. These cells are plated in DMEM (Gibco) containing 10% heat-inactivated FBS (Gibco) and 100 U/mL PenStrep (Gibco) at 37° C. under 5% CO2 conditions for 20-22 hours. The cells are then pretreated with serially diluted test compounds for 60 min prior to stimulation with either 10 ng/mL human recombinant IL-23 (Miltenyl Biotech) or 1 ng/mL human recombinant IFNα (InvivoGen) for 22-24 hours for IL-23 or 16-18 h for IFNα. SEAP induction is measured using the QUANTI Blue™ Solution (InvivoGen) according to the manufacturer's instructions.

[2] = test system: TYK2 Pseudokinase (JH2); test: HEK-Blue IFNα/β reporter assay (SEAP) for profiling TYK2 pseudokinase (JH2) inhibition; assay type: cell-based; conditions: HEK-Blue IFNα/β cells, 1 ng/mL human recombinant IFNα, read-out: IFNα IC50 (TYK2 inhibitory activity)
Procedure: as §1

[3] = molecular target: T1, TYK2-JH1 (Homo sapiens, UniProt P29597); test: HTRF-based selectivity assay, TYK2 catalytic domain; assay type: biochemical; conditions: kinase domain (JH1), 20 μM ATP
T1 construct: using a recombinant purified His or GST-tagged catalytic domain for each enzyme; made in house
T1 sequence (P29597 897-1176 limits assumed): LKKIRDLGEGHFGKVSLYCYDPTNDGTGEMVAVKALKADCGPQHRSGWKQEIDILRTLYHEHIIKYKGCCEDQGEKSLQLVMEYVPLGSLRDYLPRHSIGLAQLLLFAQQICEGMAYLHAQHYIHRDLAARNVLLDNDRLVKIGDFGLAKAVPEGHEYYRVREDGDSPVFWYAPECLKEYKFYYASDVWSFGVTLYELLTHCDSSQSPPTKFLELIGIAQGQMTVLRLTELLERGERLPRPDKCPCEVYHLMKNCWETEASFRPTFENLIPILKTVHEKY
Procedure: (§2) The ability of compounds to inhibit the activity of JAK1, JAK2, JAK3 and TYK2 is measured using a recombinant purified His or GST-tagged catalytic domain for each enzyme (JAK1, JAK2 and TYK2 are generated in-house; JAK3 was purchased from Carna biosciences, Cat #08-046) in an HTRF format biochemical assay. The reactions employs a commercial peptide substrate from Cisbio (Cat #62TK0PEC). The basic assay protocol is as follows: first, 2.5 μL of diluted compounds (4×) in DMSO are dispensed into a 384-well Optiplate. Next, 2.5 μL of enzyme (final concentrations for enzymes are: TYK2-700 ng/mL, JAK1-80.6 ng/ml, JAK2-2.1 ng/ml and JAK3-171.8 ng/mL) is added and incubated at RT for 5-20 min. Finally, 5 μl of mixture of 2×ATP [Final concentration 20 μM for TYK2, 21.43 μM for JAK1, 14.7 μM for JAK2 and 2.12 μM for JAK3]+2× Substrate [Final concentration 217 nM for TYK2, 454.7 nM for JAK1, 200 nM for JAK2 and 257.4 nM for JAK3] is added to 384 well Optiplate. Composition of Kinase assay buffer used in the assay is as follows: HEPES 50 mM, EGTA 1 mM, MgCl2 10 mM, DTT 2 mM, Tween-20 0.01% and water. Then the plates are shaken and then incubated at 26.5° C. for 60 min.

[4] = molecular target: T2, JAK1-JH1 (Homo sapiens, UniProt P23458); test: HTRF-based selectivity assay, JAK1 catalytic domain; assay type: biochemical; conditions: kinase domain (JH1), 21.43 μM ATP
T2 construct: using a recombinant purified His or GST-tagged catalytic domain for each enzyme; made in house
T2 sequence (P23458 875-1153 limits assumed): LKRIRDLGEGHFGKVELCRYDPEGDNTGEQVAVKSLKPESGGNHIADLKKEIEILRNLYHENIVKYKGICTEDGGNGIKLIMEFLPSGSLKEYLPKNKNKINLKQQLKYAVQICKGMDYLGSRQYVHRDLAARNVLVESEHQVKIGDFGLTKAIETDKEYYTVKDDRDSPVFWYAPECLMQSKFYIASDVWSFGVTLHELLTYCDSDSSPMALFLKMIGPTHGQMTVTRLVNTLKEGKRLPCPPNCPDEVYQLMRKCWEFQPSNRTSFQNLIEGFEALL
Procedure: as §2

[5] = molecular target: T3, JAK2-JH1 (Homo sapiens, UniProt O60674); test: HTRF-based selectivity assay, JAK2 catalytic domain; assay type: biochemical; conditions: kinase domain (JH1), 14.7 μM ATP
T3 construct: using a recombinant purified His or GST-tagged catalytic domain for each enzyme; made in house
T3 sequence (O60674 849-1124 limits assumed): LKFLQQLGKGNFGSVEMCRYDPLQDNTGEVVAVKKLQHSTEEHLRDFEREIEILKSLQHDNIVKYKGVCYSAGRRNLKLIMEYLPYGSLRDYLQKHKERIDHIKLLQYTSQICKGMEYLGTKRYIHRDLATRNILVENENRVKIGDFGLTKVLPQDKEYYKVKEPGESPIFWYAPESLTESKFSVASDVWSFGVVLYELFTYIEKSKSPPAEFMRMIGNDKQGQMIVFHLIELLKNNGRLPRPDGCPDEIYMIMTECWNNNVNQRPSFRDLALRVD
Procedure: as §2

[6] = molecular target: T4, JAK3-JH1 (Homo sapiens, UniProt P52333); test: HTRF-based selectivity assay, JAK3 catalytic domain; assay type: biochemical; conditions: kinase domain (JH1), 2.12 μM ATP
T4 construct: using a recombinant purified His or GST-tagged catalytic domain for each enzyme; purchased Carna biosciences 08-046
T4 sequence (P52333 822-1111 limits assumed): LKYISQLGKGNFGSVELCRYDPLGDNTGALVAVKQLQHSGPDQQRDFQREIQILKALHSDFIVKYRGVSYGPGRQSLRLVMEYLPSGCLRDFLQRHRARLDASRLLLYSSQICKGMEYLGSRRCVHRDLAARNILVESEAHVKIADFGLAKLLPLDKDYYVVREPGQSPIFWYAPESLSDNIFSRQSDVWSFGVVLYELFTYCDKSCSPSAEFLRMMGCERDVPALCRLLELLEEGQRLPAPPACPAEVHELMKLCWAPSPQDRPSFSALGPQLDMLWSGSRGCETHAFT
Procedure: as §2

[7] = test system: HEK-Blue IL-2 reporter cells; test: HEK-Blue IL-2 reporter assay (SEAP) for determining selectivity; assay type: cell-based; conditions: HEK-Blue IL-2 cells, 4 ng/ml human recombinant IL-2, SEAP reporter
Procedure: (§3) HEK-Blue™ IL-2 and IFNγ reporter cells with a stably-integrated cytokine receptor and STAT5 or STAT1 express STAT-inducible secreted embryonic alkaline phosphatase (SEAP) reporter gene upon cytokine stimulation. These cells were plated in DMEM (Gibco) containing 10% heat-inactivated FBS (Gibco) and 100 U/mL PenStrep (Gibco) at 37° C. under 5% CO2 conditions for 20-22 hours. The cells were then pretreated with serially diluted test compounds for 60 min prior to stimulation with either 4 ng/ml human recombinant IL-2 (Miltenyl Biotech) or 50 ng/ml human recombinant IFNγ (InvivoGen) for 24 hours. SEAP induction was measured using the QUANTI-Blue™ Solution (InvivoGen) according to the manufacturer's instructions.

[8] = test system: HEK-Blue IFNγ reporter cells; test: HEK-Blue IFNγ reporter assay (SEAP) for determining selectivity; assay type: cell-based; conditions: 50 ng/ml human recombinant IFNγ, read-out: IFN-γ IC50 (SEAP selectivity)
Procedure: as §3

SMILES | IC50 [1] [µM] | IC50 [2] [µM] | IC50 [3] [µM] | IC50 [4] [µM] | IC50 [5] [µM] | IC50 [6] [µM] | IC50 [7] [µM] | IC50 [8] [µM]
[2H]C([2H])([2H])NC(=O)c1nnc(NC(=O)C2CC2)cc1Nc1cccc2c1N(C)Cc1nccnc1-2 [Compound 16, 6-(cyclopropanecarboxamido)-N-(methyl-d3)-4-((6-methyl-5,6-dihydropyrazino[2,3-c]quinolin-7-yl)amino)pyridazine-3-carboxamide] | < 0.03 | < 0.03 | > 1 | > 1 | > 1 | > 1 | > 1 | 0.03 to 0.3
[2H]C([2H])([2H])NC(=O)c1nnc(NC(=O)C2CC2)cc1Nc1cccc2c1N(C)Cc1cccnc1-2 [Compound 1, 6-(cyclopropanecarboxamido)-N-(methyl-d3)-4-((6-methyl-5,6-dihydrobenzo[h][1,6]naphthyridin-7-yl)amino)pyridazine-3-carboxamide] | < 0.03 | < 0.03 | > 1 | > 1 | > 1 | > 1 | > 1 | > 1
[2H]C([2H])([2H])NC(=O)c1cnc(NC(=O)C2CC2)cc1Nc1cccc2c1N(C)Cc1cccnc1-2 [Compound 3, 6-(cyclopropanecarboxamido)-N-(methyl-d3)-4-((6-methyl-5,6-dihydrobenzo[h][1,6]naphthyridin-7-yl)amino)nicotinamide] | < 0.03 | < 0.03 | > 1 | > 1 | > 1 | > 1 | > 1 | > 1
[2H]C([2H])([2H])NC(=O)c1nnc(Nc2ccc(F)cn2)cc1Nc1cccc2c1N(C)Cc1cccnc1-2 [Compound 2, 6-((5-fluoropyridin-2-yl)amino)-N-(methyl-d3)-4-((6-methyl-5,6-dihydrobenzo[h][1,6]naphthyridin-7-yl)amino)pyridazine-3-carboxamide] | < 0.03 | < 0.03 | > 1 | > 1 | > 1 | > 1 | > 1 | > 1

Further lines, with some results ahead:

IC50 [1] [µM] | IC50 [2] [µM] | IC50 [3] [µM] | IC50 [4] [µM] | IC50 [5] [µM] | IC50 [6] [µM] | SMILES | IC50 [7] [µM] | IC50 [8] [µM]
< 0.03 | < 0.03 | > 1 | > 1 | > 1 | > 1 | [2H]C([2H])([2H])NC(=O)c1cnc(NC(=O)C2CC2)cc1Nc1cccc2c1N(C)Cc1cc(F)cnc1-2 [Compound 5, 6-(cyclopropanecarboxamido)-4-((3-fluoro-6-methyl-5,6-dihydrobenzo[h][1,6]naphthyridin-7-yl)amino)-N-(methyl-d3)nicotinamide] | > 1 | > 1
< 0.03 | < 0.03 | > 1 | > 1 | > 1 | > 1 | [2H]C([2H])([2H])NC(=O)c1nnc(NC(=O)C2CC2)cc1Nc1cccc2c1N(C([2H])([2H])[2H])Cc1nccnc1-2 [Compound 18, 6-(cyclopropanecarboxamido)-N-(methyl-d3)-4-((6-(methyl-d3)-5,6-dihydropyrazino[2,3-c]quinolin-7-yl)amino)pyridazine-3-carboxamide] | 0.3 to 1 | 0.03 to 0.3
< 0.03 | < 0.03 | > 1 | > 1 | > 1 | > 1 | [2H]C([2H])([2H])NC(=O)c1cnc(NC(=O)C2CC2)cc1Nc1cccc2c1N(C([2H])([2H])[2H])Cc1nccnc1-2 [Compound 17, 6-(cyclopropanecarboxamido)-N-(methyl-d3)-4-((6-(methyl-d3)-5,6-dihydropyrazino[2,3-c]quinolin-7-yl)amino)nicotinamide] | > 1 | 0.03 to 0.3
< 0.03 | < 0.03 | > 1 | 0.3 to 1 | > 1 | > 1 | [2H]C([2H])([2H])NC(=O)c1nnc(NC(=O)C2CC2)cc1Nc1cccc2c1N(C)Cc1cncnc1-2 [Compound 6, 6-(cyclopropanecarboxamido)-N-(methyl-d3)-4-((6-methyl-5,6-dihydropyrimido[5,4-c]quinolin-7-yl)amino)pyridazine-3-carboxamide] | > 1 | 0.03 to 0.3
< 0.03 | < 0.03 | > 1 | > 1 | > 1 | > 1 | [2H]C([2H])([2H])NC(=O)c1cnc(NC(=O)C2CC2)cc1Nc1cccc2c1N(C)Cc1cnn(C)c(=O)c1-2 [Compound 28, 6-(cyclopropanecarboxamido)-4-((2,6-dimethyl-1-oxo-1,2,5,6-tetrahydropyridazino[4,5-c]quinolin-7-yl)amino)-N-(methyl-d3)nicotinamide] | > 1 | 0.03 to 0.3

Reference: US12600721B2, “TYK2 inhibitors and uses thereof” (Sudo Biosciences Limited, priority 2021, dated 2026)
